Active and inactive are the calls of the source. No cut-off for these calls is given here.

The target of assay [1] is T1, Amyloid-beta precursor protein (Homo sapiens, UniProt P05067). Kind of assay: Binding affinity to amyloid beta (1 to 42) (unknown origin) assessed as dissociation constant by SPR analysis. On the technique in general: Surface plasmon resonance follows binding to a sensor surface in real time, without labels.
The target of assay [2] is T1, Amyloid-beta precursor protein. Kind of assay: Binding affinity to amyloid beta (1 to 42) (unknown origin) assessed as binding constant K(off) by SPR analysis.
The target is the same in assay [3]. The experiment in a line: Binding affinity to amyloid beta (1 to 42) (unknown origin) assessed as binding constant K(on) by SPR analysis.
Assay [4] relates to MDA-MB-468. Kind of assay: Protection against amyloid beta-induced cytotoxicity in human MDA-MB-468 cells at 0.5 uM by MTT assay. Format: functional, cell-based. A general note: Tetrazolium assays rely on reduction of a dye to a coloured formazan, in cell work by metabolically active cells.
Assay [5] has as its system MDA-MB-468. The experiment in a line: Induction of amyloid beta (1 to 42) degradation in lysosome of human MDA-MB-468 cells assessed as decrease in fluorescence signal at 1 uM incubated for 48 to 72 hrs by FITC based flow cytometry analysis. Format: subcellular. To be noted: time 48-72 hrs.

T1 sequence (P05067 whole entry): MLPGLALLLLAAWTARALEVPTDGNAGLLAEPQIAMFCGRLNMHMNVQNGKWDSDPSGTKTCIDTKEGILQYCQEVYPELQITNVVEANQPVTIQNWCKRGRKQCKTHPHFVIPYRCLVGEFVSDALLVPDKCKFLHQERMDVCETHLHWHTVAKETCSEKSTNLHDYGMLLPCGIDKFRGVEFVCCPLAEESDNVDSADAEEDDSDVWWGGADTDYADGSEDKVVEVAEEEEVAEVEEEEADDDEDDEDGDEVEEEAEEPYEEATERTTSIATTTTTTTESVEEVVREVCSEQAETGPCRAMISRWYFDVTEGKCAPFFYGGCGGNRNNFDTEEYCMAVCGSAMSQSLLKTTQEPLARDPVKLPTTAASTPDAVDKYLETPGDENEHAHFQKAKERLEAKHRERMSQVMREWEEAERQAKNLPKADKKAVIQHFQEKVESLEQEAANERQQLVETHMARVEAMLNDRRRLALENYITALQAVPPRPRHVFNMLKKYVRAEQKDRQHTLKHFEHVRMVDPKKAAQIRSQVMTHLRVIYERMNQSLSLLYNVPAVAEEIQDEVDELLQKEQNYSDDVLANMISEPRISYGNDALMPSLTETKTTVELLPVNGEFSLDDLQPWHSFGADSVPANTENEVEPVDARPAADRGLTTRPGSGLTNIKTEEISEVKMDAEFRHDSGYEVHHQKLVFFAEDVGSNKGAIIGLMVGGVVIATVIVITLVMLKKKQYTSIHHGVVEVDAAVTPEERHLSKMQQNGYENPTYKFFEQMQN

A word on the Kd: it is the free concentration of one partner at which half of the binding sites on the other are occupied at equilibrium, for simple one-to-one binding. Consider `NCCCO[C@@H]1O[C@@H](C(=O)O)[C@@H](O[C@H]2O[C@H](COS(=O)(=O)O)[C@@H](O[C@@H]3O[C@@H](C(=O)O)[C@@H](O[C@H]4O[C@H](COS(=O)(=O)O)[C@@H](O[C@@H]5O[C@@H](C(=O)O)[C@@H](O[C@H]6O[C@H](COS(=O)(=O)O)[C@@H](O)[C@H](O)[C@H]6NS(=O)(=O)O)[C@H](O)[C@H]5OS(=O)(=O)O)[C@H](O)[C@H]4NS(=O)(=O)O)[C@H](O)[C@H]3OS(=O)(=O)O)[C@H](O)[C@H]2NS(=O)(=O)O)[C@H](O)[C@H]1OS(=O)(=O)O`, for which, in assay [1], the Kd amounted to 90.3 nM. Also, the K was 2.23 10^-2/s in assay [2] and 2.47 10^5/Ms in assay [3].

Consider `NCCOCCO[C@@H]1O[C@@H](COS(=O)(=O)O)[C@@H](O[C@@H]2O[C@@H](COS(=O)(=O)O)[C@@H](O[C@@H]3O[C@@H](COS(=O)(=O)O)[C@@H](O[C@@H]4O[C@@H](COS(=O)(=O)O)[C@@H](OS(=O)(=O)O)[C@H](O)[C@H]4OS(=O)(=O)O)[C@H](O)[C@H]3OS(=O)(=O)O)[C@H](O)[C@H]2OS(=O)(=O)O)[C@H](O)[C@H]1OS(=O)(=O)O`, for which the Kd in assay [1] was determined as 90.2 nM. The K in assay [2] is 2.21 10^-2/s; in assay [3], 2.45 10^5/Ms.

As for `CC(C)CCC[C@@H](C)[C@H]1CC[C@H]2[C@@H]3CC=C4C[C@@H](OCCC(=O)NCCOCCOCCNC(=O)CCC(=O)N5Cc6ccccc6-c6c(nnn6CCC[C@H](NC(=O)[C@H](CCCCNC(=O)CCn6nnc7c6-c6ccccc6CN(C(=O)CCC(=O)NCCCO[C@@H]6O[C@@H](C(=O)O)[C@@H](O[C@H]8O[C@H](COS(=O)(=O)O)[C@@H](O[C@@H]9O[C@@H](C(=O)O)[C@@H](O[C@H]%10O[C@H](COS(=O)(=O)O)[C@@H](O[C@@H]%11O[C@@H](C(=O)O)[C@@H](O[C@H]%12O[C@H](COS(=O)(=O)O)[C@@H](O)[C@H](O)[C@H]%12NS(=O)(=O)O)[C@H](O)[C@H]%11OS(=O)(=O)O)[C@H](O)[C@H]%10NS(=O)(=O)O)[C@H](O)[C@H]9OS(=O)(=O)O)[C@H](O)[C@H]8NS(=O)(=O)O)[C@H](O)[C@H]6OS(=O)(=O)O)c6ccccc6-7)NC(=O)[C@H](CCCCNC(=O)CCn6nnc7c6-c6ccccc6CN(C(=O)CCC(=O)NCCCO[C@@H]6O[C@@H](C(=O)O)[C@@H](O[C@H]8O[C@H](COS(=O)(=O)O)[C@@H](O[C@@H]9O[C@@H](C(=O)O)[C@@H](O[C@H]%10O[C@H](COS(=O)(=O)O)[C@@H](O[C@@H]%11O[C@@H](C(=O)O)[C@@H](O[C@H]%12O[C@H](COS(=O)(=O)O)[C@@H](O)[C@H](O)[C@H]%12NS(=O)(=O)O)[C@H](O)[C@H]%11OS(=O)(=O)O)[C@H](O)[C@H]%10NS(=O)(=O)O)[C@H](O)[C@H]9OS(=O)(=O)O)[C@H](O)[C@H]8NS(=O)(=O)O)[C@H](O)[C@H]6OS(=O)(=O)O)c6ccccc6-7)NC(=O)[C@H](CCCCNC(=O)CCn6nnc7c6-c6ccccc6CN(C(=O)CCC(=O)NCCCO[C@@H]6O[C@@H](C(=O)O)[C@@H](O[C@H]8O[C@H](COS(=O)(=O)O)[C@@H](O[C@@H]9O[C@@H](C(=O)O)[C@@H](O[C@H]%10O[C@H](COS(=O)(=O)O)[C@@H](O[C@@H]%11O[C@@H](C(=O)O)[C@@H](O[C@H]%12O[C@H](COS(=O)(=O)O)[C@@H](O)[C@H](O)[C@H]%12NS(=O)(=O)O)[C@H](O)[C@H]%11OS(=O)(=O)O)[C@H](O)[C@H]%10NS(=O)(=O)O)[C@H](O)[C@H]9OS(=O)(=O)O)[C@H](O)[C@H]8NS(=O)(=O)O)[C@H](O)[C@H]6OS(=O)(=O)O)c6ccccc6-7)NC(=O)[C@H](CCCCNC(=O)CCn6nnc7c6-c6ccccc6CN(C(=O)CCC(=O)NCCCO[C@@H]6O[C@@H](C(=O)O)[C@@H](O[C@H]8O[C@H](COS(=O)(=O)O)[C@@H](O[C@@H]9O[C@@H](C(=O)O)[C@@H](O[C@H]%10O[C@H](COS(=O)(=O)O)[C@@H](O[C@@H]%11O[C@@H](C(=O)O)[C@@H](O[C@H]%12O[C@H](COS(=O)(=O)O)[C@@H](O)[C@H](O)[C@H]%12NS(=O)(=O)O)[C@H](O)[C@H]%11OS(=O)(=O)O)[C@H](O)[C@H]%10NS(=O)(=O)O)[C@H](O)[C@H]9OS(=O)(=O)O)[C@H](O)[C@H]8NS(=O)(=O)O)[C@H](O)[C@H]6OS(=O)(=O)O)c6ccccc6-7)NC(=O)[C@H](CCCCNC(=O)CCn6nnc7c6-c6ccccc6CN(C(=O)CCC(=O)NCCCO[C@@H]6O[C@@H](C(=O)O)[C@@H](O[C@H]8O[C@H](COS(=O)(=O)O)[C@@H](O[C@@H]9O[C@@H](C(=O)O)[C@@H](O[C@H]%10O[C@H](COS(=O)(=O)O)[C@@H](O[C@@H]%11O[C@@H](C(=O)O)[C@@H](O[C@H]%12O[C@H](COS(=O)(=O)O)[C@@H](O)[C@H](O)[C@H]%12NS(=O)(=O)O)[C@H](O)[C@H]%11OS(=O)(=O)O)[C@H](O)[C@H]%10NS(=O)(=O)O)[C@H](O)[C@H]9OS(=O)(=O)O)[C@H](O)[C@H]8NS(=O)(=O)O)[C@H](O)[C@H]6OS(=O)(=O)O)c6ccccc6-7)NC(=O)[C@H](C)NC(=O)CCCCC[N+]6=C(/C=C/C=C/C=C7\N(C)c8ccccc8C7(C)C)C(C)(C)c7ccccc76)C(N)=O)-c6ccccc65)CC[C@]4(C)[C@H]3CC[C@]12C`, the result in the assay with MDA-MB-468 [4] and in the assay on MDA-MB-468 [5] was Active.
